Results on 1 substance are retold here after patent US20230190663A1, “PRUSSIAN BLUE NANOPARTICLES FUNCTIONALIZATION WITH LATENCY REVERSING AGENTS AND BROADLY NEUTRALIZING ANTIBODIES, AND APPLICATIONS THEREOF” (THE GEORGE WASHINGTON UNIVERSITY, priority 2020, published 2023).

In data set [1] the test system is J-LAT cells. Briefly: Viability / cytotoxicity of treated J-LAT cells. The following applies: 1-15 μL, not transfected, FIG. 4B. The protocol:
Example 3. […] J-LAT cells harbor latent, transcriptionally competent HIV provirus that encodes green fluorescent protein (GFP) as an indicator of HIV-1 reactivation. […] Generally for effective latency reversal, free Poly I:C has to be delivered into the cytoplasm of the latently infected cells via transfection.
Next, J-LAT cells were treated with increasing concentrations of Citrate-PBNP, PEI-PBNP or polyIC-PBNP (1 μL, 5 μL, 10 μL and 15 μL with [PBNP]=2 mg/mL and [polyIC]=0.5 mg/mL) where the PBNPs were added to the cell media (i.e., the PBNPs were not transfected into the cells).

In data set [2] the test system is peripheral blood mononuclear cells (PBMCs). Kind of data set: Flow cytometry of immune cell ratios and activation in treated PBMCs. Type of data set: cell-based, human. The conditions noted are these: compared to untreated PBMCs, FIG. 6G. On the procedure:
Example 4. Primary peripheral blood mononuclear cells (PBMCs) were isolated from blood collected from healthy human donors. PBMCs were incubated with increasing concentrations of Poly-PBNP (50, 5 and 1 μg/mL of attached PolyIC) and same concentrations of Free-Poly I:C overnight. PMA (Phorbol 12-myristate 13-acetate), a known immune-stimulator, was used as positive control herein. Following this treatment, the number of viable cells was assessed.
Treated PBMCs were subjected to flow cytometry to examine ratios of immune cells in response to Poly-PBNP and Free-Poly I:C treatments. […] There was no change in the amount of NK cells (CD56+ cells) for any of the treatment groups studied, compared to untreated PBMCs (FIG. 6F).

Data set [3] relates to J-LAT cells. Briefly: Latency reversal (GFP expression) in J-LAT cells, a model of latent HIV cells. Type of data set: cell-based. The protocol:
To determine the efficiency of free Poly I:C compared to PolyIC-PBNPs on HIV reactivation, increasing concentrations were added to J-LAT cells. Specifically, nanoparticles (PolyIC-PBNP) were generated at varying Poly I:C concentrations (1.75, 1, 1.5 and 0.75 mg/mL) and added to the cell culture medium to treat the J-LAT cells.

For the substance “polyinosinic-polycytidylic acid [Free Poly I:C]”, the “cytotoxicity at increasing concentrations” value in the data set on J-LAT cells [1] is “caused cytotoxicity at higher concentrations”. Further, in data set [2], the “NK cells activation (CD56+CD69+)” value is “no changes”. In addition, the “Hill Slope (best-fit value)” value with J-LAT cells [3] (HIV reactivation in J-LAT cells, overnight, log(agonist) vs. normalized response, variable slope) is reported as 1.904. The “latency reversal at increasing concentrations” value in the data set with J-LAT cells [3] (J-LAT cells, 1, 5, 10 and 15 μL added to cell media, not transfected, FIG. 4A) is “reversed latency in a dose dependent manner”. The “EC50 of HIV reactivation (GFP expression)” value with J-LAT cells [3] (J-LAT cells, overnight incubation, Table 1 prints none) is 6.944 µg/mL.
